Assay results from patent publication US11241430B2, “Solid forms of 2-(tert-butylamino)-4-((1R,3R,4R)-3-hydroxy-4-methylcyclohexylamino)-pyrimidine-5-carboxamide, compositions thereof and methods of their use” (Signal Pharmaceuticals, LLC, priority 2014, dated 2022).
Converted amounts (≈) assume the structure as drawn. Values belong to the molecule of their own block, whether it stands above or below them.

What was measured:
[1] = Moisture sorption/desorption (hygroscopicity) by DVS; format: physicochemical
Experimental: Hygroscopicity was determined on a Surface Measurement Systems DVS. Typically a sample size of 5-20 mg was loaded into the DVS instrument sample pan and the sample was analyzed on a DVS automated sorption analyzer at room temperature. The relative humidity was increased from 0% to 90% RH at 10% RH step, then at 95% RH. The relative humidity was then decreased in a similar manner to accomplish a full adsorption/desorption cycle.
The moisture sorption/desorption behavior of Form A was determined by DVS.

Water uptake on storage = format: physicochemical
[2] = Compression test of Form A; format: physicochemical; conditions: 2000-psi pressure for about 1 minute
Text: The stability of Form A was further characterized by compression test and form transfer experiments.

physchem = conditions: 25 °C, thermodynamic from solid
[3] = Slurry experiments of Form H in water/DMSO (form map)
Experimental: The effect of temperature (22° C.-70° C.) and water compositions in DMSO (50%-88%) on the stability of Form A and Form H of Compound 1 is mapped out in Table 6 and FIG. 45.

[4] = Form conversion experiments: heating of solvated forms; format: physicochemical
Experimental: (§1) Further form conversion experiments were performed to determine interconversion among solid forms. The solvated forms were isothermally held at 150° C. for 5 min and the resulted solids were consistent with Form A. All aqueous slurries also afforded Form A.

[5] = Form conversion experiments: slurry in water; format: physicochemical; conditions: RT, 5 days
Experimental: as §1

XRPD diffractogram after adsorption/desorption cycles ([1]; after DVS cycle 0-95% RH): no change
DVS water uptake ([1]; at 80% RH (Table 5)): 1.0 wt % at
steep mass change (DVS) ([1]; between 0 and 10% RH, room temperature): 1.3%
total mass change (DVS) ([1]; between 0 and 95% RH, room temperature): 2.3%
DVS water uptake ([1]; from 0 to 95% RH (Table 5)): 1.2 wt % water
water uptake at room temperature (Water uptake on storage; room temperature): relatively slow water uptake
water absorbed after storage (Water uptake on storage; storage at 40° C./75% RH for 7 months): up to 3%
solid form after compression (XRPD) [2]: still Form A
solubility at 24 h (physchem; pH 4.5, aqueous buffer): 289 µg/mL (≈ 899 µM)
solubility at 24 h (physchem): 38 µg/mL (≈ 118 µM)
form stability in water/DMSO ([3]; 22° C., 70-88% water in DMSO): remained as Form A
thermodynamic stability in water/DMSO ([3]; water rich water/DMSO mixture (>70%), 22° C.-70° C.): thermodynamically stable form
SMILES: C[C@@H]1CC[C@@H](Nc2nc(NC(C)(C)C)ncc2C(N)=O)C[C@H]1O [Form A, 2-(tert-butylamino)-4-((1R,3R,4R)-3-hydroxy-4-methylcyclohexylamino)-pyrimidine-5-carboxamide]

Stable Polymorph Form after slurry of Form H ([3]; 50% water in DMSO, 22° C.): A/H
Stable Polymorph Form after slurry of Form H ([3]; 60% water in DMSO, 40° C.): A/H
SMILES: C[C@@H]1CC[C@@H](Nc2nc(NC(C)(C)C)ncc2C(N)=O)C[C@H]1O [Form H, 2-(tert-butylamino)-4-((1R,3R,4R)-3-hydroxy-4-methylcyclohexylamino)-pyrimidine-5-carboxamide]

solid form after heating above the desolvation temperature ([4]; form transfer experiment, heating above the desolvation temperature): Form A
XRPD Result (solid form after slurry in water) [5]: Form A
SMILES: C[C@@H]1CC[C@@H](Nc2nc(NC(C)(C)C)ncc2C(N)=O)C[C@H]1O [Form B, 2-(tert-butylamino)-4-((1R,3R,4R)-3-hydroxy-4-methylcyclohexylamino)-pyrimidine-5-carboxamide]

XRPD Result (solid form after heating) ([4]; Heating, isothermal hold at 150° C. for 5 min): Form A
SMILES: C[C@@H]1CC[C@@H](Nc2nc(NC(C)(C)C)ncc2C(N)=O)C[C@H]1O [Form D, 2-(tert-butylamino)-4-((1R,3R,4R)-3-hydroxy-4-methylcyclohexylamino)-pyrimidine-5-carboxamide]
